From ChEMBL document CHEMBL5291721, “A preclinical secondary pharmacology resource illuminates target-adverse drug reaction associations of marketed drugs” (Nat Commun, 2023)

Columns and labels:
[1] = target: cGMP-inhibited 3',5'-cyclic phosphodiesterase 3A (Homo sapiens, UniProt Q14432); type: functional
[2] = target: 3',5'-cyclic-AMP phosphodiesterase 4D (Homo sapiens, UniProt Q08499); type: functional
[3] = target: T1, B2 bradykinin receptor (Homo sapiens, UniProt P30411)
T1 sequence (P30411 whole entry): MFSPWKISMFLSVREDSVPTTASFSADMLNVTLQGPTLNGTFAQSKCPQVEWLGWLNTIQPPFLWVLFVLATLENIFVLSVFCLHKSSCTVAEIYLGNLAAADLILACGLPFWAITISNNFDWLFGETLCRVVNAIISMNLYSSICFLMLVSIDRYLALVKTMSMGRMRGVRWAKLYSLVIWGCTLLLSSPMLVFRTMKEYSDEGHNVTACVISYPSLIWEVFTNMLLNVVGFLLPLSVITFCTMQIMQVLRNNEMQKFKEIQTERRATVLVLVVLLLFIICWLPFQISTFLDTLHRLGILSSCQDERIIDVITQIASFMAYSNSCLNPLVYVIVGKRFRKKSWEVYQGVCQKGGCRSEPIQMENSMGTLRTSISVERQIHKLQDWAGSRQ

[4] = target: T2, Glucocorticoid receptor (Homo sapiens, UniProt P04150)
T2 sequence (P04150 whole entry): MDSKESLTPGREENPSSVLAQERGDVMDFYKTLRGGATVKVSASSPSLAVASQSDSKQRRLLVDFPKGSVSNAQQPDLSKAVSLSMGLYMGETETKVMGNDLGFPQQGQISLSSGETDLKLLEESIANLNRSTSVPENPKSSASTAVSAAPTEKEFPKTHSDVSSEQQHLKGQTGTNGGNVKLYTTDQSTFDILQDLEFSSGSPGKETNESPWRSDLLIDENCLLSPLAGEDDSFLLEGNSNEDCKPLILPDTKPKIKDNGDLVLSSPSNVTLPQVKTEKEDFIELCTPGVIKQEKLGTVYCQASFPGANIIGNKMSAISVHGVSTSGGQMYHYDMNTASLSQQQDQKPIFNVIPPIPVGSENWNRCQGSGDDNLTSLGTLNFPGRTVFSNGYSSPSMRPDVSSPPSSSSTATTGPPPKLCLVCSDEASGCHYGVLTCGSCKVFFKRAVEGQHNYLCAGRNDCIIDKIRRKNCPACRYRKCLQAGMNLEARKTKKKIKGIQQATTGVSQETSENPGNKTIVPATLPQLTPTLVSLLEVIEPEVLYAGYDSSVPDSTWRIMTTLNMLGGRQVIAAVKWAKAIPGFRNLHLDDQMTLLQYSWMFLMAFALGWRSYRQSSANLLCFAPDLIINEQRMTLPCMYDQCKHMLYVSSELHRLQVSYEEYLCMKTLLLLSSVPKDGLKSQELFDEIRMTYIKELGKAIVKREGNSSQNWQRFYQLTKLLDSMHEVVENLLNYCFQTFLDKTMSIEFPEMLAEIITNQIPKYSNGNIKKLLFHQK

[5] = target: T3, Equilibrative nucleoside transporter 1 (Homo sapiens, UniProt Q99808)
T3 sequence (Q99808 whole entry): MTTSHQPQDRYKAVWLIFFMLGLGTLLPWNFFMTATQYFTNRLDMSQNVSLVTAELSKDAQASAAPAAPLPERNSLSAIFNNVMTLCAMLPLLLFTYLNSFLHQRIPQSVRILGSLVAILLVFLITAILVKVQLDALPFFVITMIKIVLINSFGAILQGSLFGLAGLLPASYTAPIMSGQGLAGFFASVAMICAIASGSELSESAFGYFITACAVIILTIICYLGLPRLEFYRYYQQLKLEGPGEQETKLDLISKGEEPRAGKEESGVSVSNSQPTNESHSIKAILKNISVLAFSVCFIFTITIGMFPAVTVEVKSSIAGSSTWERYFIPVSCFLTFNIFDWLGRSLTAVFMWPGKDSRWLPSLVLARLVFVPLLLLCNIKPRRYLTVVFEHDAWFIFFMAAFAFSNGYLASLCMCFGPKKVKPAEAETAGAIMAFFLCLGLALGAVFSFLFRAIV

[6] = target: T4, Alpha-2A adrenergic receptor (Homo sapiens, UniProt P08913); type: functional, cell-based
T4 sequence (P08913 whole entry): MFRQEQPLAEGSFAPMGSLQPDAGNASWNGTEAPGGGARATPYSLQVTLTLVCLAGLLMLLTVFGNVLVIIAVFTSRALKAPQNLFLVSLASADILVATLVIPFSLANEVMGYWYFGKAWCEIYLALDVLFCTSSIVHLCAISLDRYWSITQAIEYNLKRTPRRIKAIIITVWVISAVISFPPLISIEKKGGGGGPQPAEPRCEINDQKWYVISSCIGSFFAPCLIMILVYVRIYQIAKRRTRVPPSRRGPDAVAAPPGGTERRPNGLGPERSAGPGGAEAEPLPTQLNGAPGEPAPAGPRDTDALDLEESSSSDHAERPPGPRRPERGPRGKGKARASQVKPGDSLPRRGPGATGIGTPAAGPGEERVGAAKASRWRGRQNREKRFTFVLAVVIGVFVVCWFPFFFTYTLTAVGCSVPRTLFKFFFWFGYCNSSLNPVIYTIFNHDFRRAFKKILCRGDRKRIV

[7] = target: Histamine H3 receptor (Homo sapiens, UniProt Q9Y5N1)
[8] = target: T5, Muscarinic acetylcholine receptor M2 (Homo sapiens, UniProt P08172); type: functional, cell-based
T5 sequence (P08172 whole entry): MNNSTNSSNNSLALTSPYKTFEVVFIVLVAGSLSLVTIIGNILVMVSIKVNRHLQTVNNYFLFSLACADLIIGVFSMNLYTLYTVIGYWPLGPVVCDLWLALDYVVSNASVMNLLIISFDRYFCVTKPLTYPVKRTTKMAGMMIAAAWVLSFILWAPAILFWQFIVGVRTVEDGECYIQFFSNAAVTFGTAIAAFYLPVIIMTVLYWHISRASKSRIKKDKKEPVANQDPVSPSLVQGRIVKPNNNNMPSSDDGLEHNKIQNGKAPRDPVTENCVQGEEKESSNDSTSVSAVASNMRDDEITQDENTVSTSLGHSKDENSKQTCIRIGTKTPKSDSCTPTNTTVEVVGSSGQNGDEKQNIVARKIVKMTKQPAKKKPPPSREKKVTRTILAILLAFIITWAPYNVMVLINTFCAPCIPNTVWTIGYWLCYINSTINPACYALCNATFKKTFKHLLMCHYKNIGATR
Also: assay procedure not described here.

3',5'-cyclic-AMP phosphodiesterase 4D, sequence (Q08499 whole entry): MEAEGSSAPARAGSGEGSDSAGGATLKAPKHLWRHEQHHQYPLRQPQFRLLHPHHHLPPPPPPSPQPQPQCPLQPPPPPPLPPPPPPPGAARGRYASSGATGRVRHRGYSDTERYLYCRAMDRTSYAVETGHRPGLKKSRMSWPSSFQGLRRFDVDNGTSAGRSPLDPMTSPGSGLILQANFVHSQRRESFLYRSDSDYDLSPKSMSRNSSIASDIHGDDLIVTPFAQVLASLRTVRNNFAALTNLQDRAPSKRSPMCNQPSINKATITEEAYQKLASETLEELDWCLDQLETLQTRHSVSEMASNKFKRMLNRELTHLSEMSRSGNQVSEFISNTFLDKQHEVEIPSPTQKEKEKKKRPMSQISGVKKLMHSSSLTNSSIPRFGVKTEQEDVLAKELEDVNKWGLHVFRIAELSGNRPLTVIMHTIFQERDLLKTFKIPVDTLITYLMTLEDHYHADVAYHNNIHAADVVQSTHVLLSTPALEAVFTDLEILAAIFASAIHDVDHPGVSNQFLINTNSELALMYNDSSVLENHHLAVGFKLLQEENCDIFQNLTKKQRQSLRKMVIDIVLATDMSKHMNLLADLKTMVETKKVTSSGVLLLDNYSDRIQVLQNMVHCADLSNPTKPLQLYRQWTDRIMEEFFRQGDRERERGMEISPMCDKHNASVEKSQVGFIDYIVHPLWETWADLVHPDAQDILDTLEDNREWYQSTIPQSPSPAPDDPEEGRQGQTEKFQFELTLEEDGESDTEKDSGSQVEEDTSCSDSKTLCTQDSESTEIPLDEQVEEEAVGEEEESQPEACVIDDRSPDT
cGMP-inhibited 3',5'-cyclic phosphodiesterase 3A, sequence (Q14432 whole entry): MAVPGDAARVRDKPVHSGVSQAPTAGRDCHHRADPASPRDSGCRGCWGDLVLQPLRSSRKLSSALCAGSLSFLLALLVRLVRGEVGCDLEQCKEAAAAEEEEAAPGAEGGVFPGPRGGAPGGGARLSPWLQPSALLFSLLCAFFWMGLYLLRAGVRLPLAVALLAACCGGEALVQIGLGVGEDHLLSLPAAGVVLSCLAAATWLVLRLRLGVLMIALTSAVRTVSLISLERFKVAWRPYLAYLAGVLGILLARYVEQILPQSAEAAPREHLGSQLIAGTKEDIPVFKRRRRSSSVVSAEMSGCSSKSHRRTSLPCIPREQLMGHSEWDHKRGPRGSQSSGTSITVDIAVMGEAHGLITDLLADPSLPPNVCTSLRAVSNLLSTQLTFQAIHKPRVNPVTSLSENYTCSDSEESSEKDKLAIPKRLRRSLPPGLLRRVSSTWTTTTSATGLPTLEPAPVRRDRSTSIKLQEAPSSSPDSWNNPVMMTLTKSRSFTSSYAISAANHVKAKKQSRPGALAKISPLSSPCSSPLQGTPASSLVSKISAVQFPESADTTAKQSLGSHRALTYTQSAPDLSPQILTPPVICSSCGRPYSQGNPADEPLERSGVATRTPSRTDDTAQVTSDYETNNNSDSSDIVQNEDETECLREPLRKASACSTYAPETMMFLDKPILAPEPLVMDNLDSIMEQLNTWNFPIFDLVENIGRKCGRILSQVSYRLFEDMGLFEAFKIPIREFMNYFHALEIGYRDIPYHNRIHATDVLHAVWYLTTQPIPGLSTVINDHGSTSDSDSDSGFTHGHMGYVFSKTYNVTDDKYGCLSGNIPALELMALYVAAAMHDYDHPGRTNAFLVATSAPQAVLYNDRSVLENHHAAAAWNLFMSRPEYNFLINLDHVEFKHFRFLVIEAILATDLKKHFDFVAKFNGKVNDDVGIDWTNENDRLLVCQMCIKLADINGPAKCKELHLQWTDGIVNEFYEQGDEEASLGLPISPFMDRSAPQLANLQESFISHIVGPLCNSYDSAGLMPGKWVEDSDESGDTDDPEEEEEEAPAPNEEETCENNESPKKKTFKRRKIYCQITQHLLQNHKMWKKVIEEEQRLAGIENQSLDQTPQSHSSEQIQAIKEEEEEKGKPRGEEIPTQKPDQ
Histamine H3 receptor, sequence (Q9Y5N1 whole entry): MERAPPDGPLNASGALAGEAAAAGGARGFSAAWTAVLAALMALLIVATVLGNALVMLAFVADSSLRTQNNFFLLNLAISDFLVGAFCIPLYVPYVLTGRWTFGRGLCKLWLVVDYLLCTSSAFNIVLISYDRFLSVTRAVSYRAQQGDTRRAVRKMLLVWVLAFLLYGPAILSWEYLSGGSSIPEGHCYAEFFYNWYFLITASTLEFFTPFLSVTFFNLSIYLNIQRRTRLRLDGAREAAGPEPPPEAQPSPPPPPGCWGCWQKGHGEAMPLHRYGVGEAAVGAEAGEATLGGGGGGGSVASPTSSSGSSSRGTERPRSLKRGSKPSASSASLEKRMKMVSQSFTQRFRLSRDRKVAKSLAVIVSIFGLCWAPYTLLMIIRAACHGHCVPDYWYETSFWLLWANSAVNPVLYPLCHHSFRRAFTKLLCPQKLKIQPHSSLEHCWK

SMILES | AC50 [1] [µM] | AC50 [2] [µM] | AC50 [3] [µM] | AC50 [4] [µM] | AC50 [5] [µM] | AC50 [6] [µM] | AC50 [7] [µM] | AC50 [8] [µM]
CN[C@@H](C)[C@H](O)c1ccccc1 [EPHEDRINE] | > 30 | > 30 | > 30 | > 30 | > 30 | > 10 | > 10 | 17
NC(CO)C(=O)NNCc1ccc(O)c(O)c1O (stereo not given) [BENSERAZIDE] | > 30 | > 30 | > 30 |  | > 30 | > 10 | > 10 | > 10
NC(=O)C[S+]([O-])C(c1ccccc1)c1ccccc1 (stereo not given) [MODAFINIL] | > 30 | > 30 | > 30 | > 30 | > 30 | > 10 | > 10 | > 10
CN1C(=O)CC(=O)N(c2ccccc2)c2cc(Cl)ccc21 [CLOBAZAM] | > 30 | 10 | > 10 | > 10 | > 10 | > 10 |  | > 10
CCNC(C)Cc1cccc(C(F)(F)F)c1 (stereo not given) [FENFLURAMINE] | > 30 | > 30 | > 30 | > 30 | > 30 |  | > 10 | > 30
CN1CCN(C(=O)OC2c3nccnc3C(=O)N2c2ccc(Cl)cn2)CC1 (stereo not given) [ZOPICLONE] | > 30 | > 30 | > 30 |  | > 30 | > 10 | > 30 | > 10
C=C1CC[C@@]2(O)[C@H]3Cc4ccc(O)c5c4[C@@]2(CCN3CC2CC2)[C@H]1O5 | > 30 | > 30 | > 30 | > 30 | > 30 | > 30 | > 30 | > 30
Cc1cc(-c2ccccc2)nnc1NCCN1CCOCC1 [MINAPRINE] | > 30 | > 30 | > 30 |  | > 30 | > 10 | > 10 | > 10
C#CC1(OC(N)=O)CCCCC1 [ETHINAMATE] | > 30 | > 30 | > 10 | > 10 | > 10 | > 10 | > 10 | > 10
Cc1c(C(=O)Nc2ccc(N3C[C@@H](C)O[C@@H](C)C3)nc2)cccc1-c1ccc(OC(F)(F)F)cc1 [SONIDEGIB] | > 30 | > 30 | > 30 | > 30 | > 30 |  | > 10 | 
[H]/N=C(/N)c1ccc(NCc2nc3cc(C(=O)N(CCC(=O)O)c4ccccn4)ccc3n2C)cc1 [DABIGATRAN] | > 30 | > 30 | > 30 |  | > 30 | > 30 | > 30 | > 30
CN(C)C(=O)OC1N=C(c2ccccc2)c2cc(Cl)ccc2N(C)C1=O (stereo not given) [CAMAZEPAM] | > 30 | 4.3 | > 30 | > 30 | > 30 | > 10 | > 10 | > 10
CC(C)C(=O)OCC(=O)[C@@]12O[C@H](C3CCCCC3)O[C@@H]1C[C@H]1[C@@H]3CCC4=CC(=O)C=C[C@]4(C)[C@H]3[C@@H](O)C[C@@]12C [CICLESONIDE] | > 30 | > 30 | > 10 |  | > 10 | > 10 |  | > 10
C1COC(NC(C2CC2)C2CC2)=N1 [RILMENIDINE] | > 30 | > 30 | > 30 |  | > 30 | 2.6 | > 10 | > 10
CN1CC[C@]23CCCC[C@H]2[C@H]1Cc1ccc(O)cc13 [LEVORPHANOL] | > 30 | > 30 | > 10 |  | > 30 | 9 |  | > 10
CCN(CC)CCOC(=O)c1ccc(N)cc1 [PROCAINE] | > 10 | > 10 | > 30 |  | > 30 | > 10 | 8.7 | > 10
COc1ccccc1OCC(O)COC(N)=O (stereo not given) [METHOCARBAMOL] | > 30 | > 30 | > 10 | > 30 | > 10 | > 10 |  | > 10
CN1CC(=O)N2[C@H](c3ccc4c(c3)OCO4)c3[nH]c4ccccc4c3C[C@@H]2C1=O | > 30 |  | > 30 | > 30 | > 30 | > 10 | > 10 | > 10
CCN1CCC[C@H]1CNC(=O)c1cc(S(N)(=O)=O)ccc1OC [LEVOSULPIRIDE] | > 30 | > 30 | > 30 | > 30 |  | > 10 | > 10 | > 10
CCCCOc1cc(C(=O)NCCN(CC)CC)c2ccccc2n1 [DIBUCAINE] | > 30 | > 30 | > 30 | > 10 | > 10 | > 10 |  | > 10
CC(C)c1c(C(=O)Nc2ccccc2)c(-c2ccccc2)c(-c2ccc(F)cc2)n1CC[C@@H](O)C[C@@H](O)CC(=O)O [ATORVASTATIN] | > 10 | > 30 | > 30 |  | > 30 | > 10 | > 10 | 
CN1CCC2=C(C1)C(c1ccccc1)c1ccccc12 (stereo not given) [PHENINDAMINE] | > 30 | 8.7 | > 10 | > 30 | > 30 | > 10 |  | > 10
